Source: US10865257B2, “Production methods for aqueous emulsion, fine powder and stretched porous body of modified polytetrafluoroethylene” (AGC Inc., priority 2015, dated 2020)

Assay: LogPOW, distribution coefficient in 1-octanol and water (OECD Test Guideline 107, 117; JIS Z7260-107)
Assay type: physicochemical
Details: 1-octanol/water (1:1) distribution coefficient
Excerpt: In the present invention, a fluorinated anionic surfactant having a LogPOW of from 2.4 to 3.4 is used. The LogPOW is a distribution coefficient in 1-octanol and water as stipulated in OECD Test Guideline 107, 117 and Japanese Industrial Standard Z7260-107 (2000).
At the time when a mixed liquid of octanol/water (1:1) each containing a surfactant to be measured, is phase-separated, POW represents a ratio of the surfactant concentration in octanol/the surfactant concentration in water. A surfactant having a large distribution coefficient value has a high bioaccumulation property, and a surfactant having a small distribution coefficient value has a low bioaccumulation property. When the LogPOW is 3.4 or less, the bioaccumulation property is judged to be low. By the measurement conducted by the present inventors, the LogPOW of APFO was 3.67.

Compound | logP
O=C(O)C(F)(F)OC(F)(F)C(F)(F)OC(F)(F)C(F)(F)F [APFDO, ammonium perfluoro-3,6-dioxaoctanoate] | 3.1
O=C(O)C(F)(F)C(F)(F)C(F)(F)C(F)(F)C(F)(F)C(F)(F)C(F)(F)F [APFO, ammonium perfluorooctanoate] | 3.67
